Measurements taken from patent US20130281313A1, “PROGNOSTIC AND/OR PREDICTIVE BIOMARKERS AND BIOLOGICAL APPLICATIONS THEREOF” (INSTITUT GUSTAVE ROUSSY, priority 2010, published 2013).

What was measured:
A549 cells [1] = assay: Cytofluorometric assessment of cell death (DiOC6(3)/PI co-staining); assay type: cell-based, human; details: A549 cells, 75 μM CDDP
Procedure: Unless otherwise specified, chemicals were purchased from Sigma-Aldrich (St. Louis, USA), culture media and supplements for cell culture from Gibco-Invitrogen (Carlsbad, USA) and plasticware from Corning (Corning, USA). […] Orlistat (Xenical®) was obtained from Roche (Basel, Switzerland). […] Undissolved material was removed by two sequential rounds of centrifugation at 12,000 G (5 min, room temperature, RT), supernatants were collected and stored at −80° C. under protection from light until use. In low-throughput experiments, all cell lines were treated with 2.5 mM pyridoxine (PN), exception made for A549 cells that received 5 mM PN.
To avoid depleting the siRNA library of selected sequences, siRNAs for validation experiments were purchased as custom molecules from Sigma-Aldrich. For low-throughput experiments, (see below for the transfection protocols employed in the siRNA screen), siRNA were transfected in A549 cells with Oligofectamine™ reagent (Invitrogen), following the manufacturer's instructions. Transfection with a non-targeting siRNA (siUNR) was employed as a negative control condition. Forty-eight hours after transfection, siRNA-mediated target downregulation was assessed by immunoblotting (see below).
All cytofluorometric determinations were carried out a FACSCalibur or a FACScan cytofluorometer (BD Biosciences, San Jose, USA) equipped with a 70 μm nozzle.
First line statistical analysis of cytofluorometric results was performed by using the CellQuest™ software (BD Biosciences), by gating on the events characterized by normal forward scatter and side scatter parameters. Apoptosis- and cell cycle-related data were further analyzed with Microsoft Excel (Microsoft Co., Redmond, USA) and statistical significance was assessed by means of two-tailed Student's t test (p<0.05).

Saccharomyces cerevisiae = assay: Yeast clonogenic survival; assay type: cell-based; details: yeast cells, pre-incubated with 1 mM AOAA before CDDP
Procedure: The haploid WT Saccharomyces cerevisiae strain BY4741 (MATa; his3Δ1; leu2Δ0; met15Δ0; ura3Δ0), its diploid counterpart BY4743 (MATa/MATα; his3Δ1/his3Δ1; leu2Δ0/leu2Δ0; MET15/met15Δ0; LYS2/lys2Δ0; ura3Δ0/ura3Δ0) as well as the null mutants employed in this study were obtained from were obtained from Euroscarf (Frankfurt, Germany). For large-scale experiments (see also FIG. 9), yeast cells were cultured on a routine basis at 28° C., on yeast extract peptone dextrose (YEPD) medium containing 1% yeast extract (Difco Laboratories, Detroit, USA), 2% bacto peptone (Difco Laboratories) and […] {Madeo, 2002}. […]
In all settings, cell number was then quantified by means of a CASY® cell counter (Schärfe System, Reutlingen, Germany) and 500 cells from each experimental condition were seeded on three parallel YEPD plates. Following 3 days of incubation at 28° C., plates were finally subjected to the quantification of colony forming units (CFUs). For each genotype or experimental condition, clonogenic survival was calculated as the ratio between the number of CFUs observed in treated and untreated conditions.

A549 cells [2] = assay: Transcriptome studies (mRNA microarrays); assay type: cell-based, human
Procedure: NSCLC A549 cells were treated with 100 μM CDDP, 75 μM C2-CER or 100 μM CdCl2 for 12 h, or with 50 μM CDDP, C2-CER or CdCl2 for 24 h. Thereafter, cells were collected and lysed for RNA extraction of following established procedures {de La Motte Rouge, 2007}. mRNA expression changes were quantified on G4112A 44 k Whole Human Genome Oligo Microarrays (Agilent Technologies, Santa Clara, USA), as previously reported {Castedo, 2006}. mRNA microarrays underwent standardized post-hybridization processing, image acquisition and analysis (see below) {Castedo, 2006}.
Data from microarray experiments were analyzed with the Rosetta Resolver® System (Rosetta Biosoftware, Seattle, USA). The threshold for statistical significance of probe signals (Intensity) was set at p=10^−5. […] For each mRNA, fold change (FC) was then defined as Intensitysample/Intensitycontrol when Intensitysample>Intensitycontrol, or as—(Intensitycontrol/Intensitysample) when Intensitysample<Intensitycontrol. Ratios were calculated as Intensitysample/Intensitycontrol.

[3] = tested on: isolated rat liver mitochondria; assay: Large-amplitude swelling of isolated mitochondria; details: cell-free experiments
Procedure: Mitochondria were isolated from the liver of male Wistar Kyoto rats (Charles River Laboratories Inc., Wilmington, USA) by differential centrifugation, as previously described {Zischka, 2008}. Briefly, immediately after organ collection, livers were homogenized with a glass teflon homogenizer in an isolation buffer containing 10 mM triethanolamine, 10 mM acetic acid, 280 mM sucrose, 0.2 mM EGTA (pH adjusted to 7.4 with KOH). Homogenates were cleared from debris and nuclei by two rounds of centrifugation at 750 G (10 min, 4° C.). […]
For large-amplitude swelling determinations, mitochondria were resuspended in swelling buffer (10 mM Tris-MOPS pH 7.4, 200 mM sucrose, 5 mM succinate, 1 mM phosphate, 10 μM EGTA and 2 μM rotenone) and pre-incubated for 5 min at RT with swelling buffer (negative control) or either of the following permeability transition inhibitors: 5 or 10 μM bongkrekic acid (BA), 1 or 5 μM cyclosporine A (CsA); 0.1 or 0.5 mM reduced glutathione (GSH) or 0.5 or 2 mM N-acetylcysteine (NAC). […] Permeability transition-induced large-amplitude swelling was assessed by measuring light scattering of mitochondrial suspensions at 540 nm on a standard microplate absorbance reader (μ-Quant™, Bio-Tek, Bad Friedrichshall, Germany) every 5 min over a total assay time of 30 min (at RT), as previously described {Zischka, 2008}. […]

[4] = 12 h, 100 μM CDDP, 75 μM C2-CER or 100 μM CdCl2, vs untreated cells
[5] = 24 h, 50 μM CDDP, C2-CER or CdCl2, vs untreated cells

SMILES: NOCC(=O)O [AOAA, aminooxyacetic acid]
- toxicity of CDDP upon addition of the CCBL1 inhibitor (A549 cells [1]): reduced the toxicity of CDDP
- toxicity of CDDP upon addition of the CCBL1 inhibitor (clonogenic survival) (Saccharomyces cerevisiae): reduced the toxicity of CDDP

SMILES: [Cl][Cd][Cl] [CdCl2, cadmium chloride]
- Fold change, ADAR (NM_001111) transcript (A549 cells [2]; [4]): n.s.
- Fold change, ALDH7AT (NM_001182) transcript (A549 cells [2]; [4]): −1.65
- Fold change, CD151 (NM_004357) transcript (A549 cells [2]; [4]): n.s.
- Fold change, CLIC1 (NM_001288) transcript (A549 cells [2]; [4]): 4.60
- Fold change, COMMO9 (NM_014186) transcript (A549 cells [2]; [4]): 1.85
- Fold change, COX5B (NM_001802) transcript (A549 cells [2]; [4]): n.s.
- Fold change, COX7C (NM_001867) transcript (A549 cells [2]; [4]): n.s.
- Fold change, DHRSX (NM_145177) transcript (A549 cells [2]; [4]): 1.64
- Fold change, EBP (NM_006579) transcript (A549 cells [2]; [4]): n.s.
- Fold change, EEF2 (NM_001901) transcript (A549 cells [2]; [4]): n.s.
- Fold change, FDXK (NM_003681) transcript (A549 cells [2]; [4]): n.s.
- Fold change, FN3KRP (NM_024619) transcript (A549 cells [2]; [4]): −3.34
- Fold change, HDLBP (NM_005336) transcript (A549 cells [2]; [4]): n.s.
- Fold change, HGD (NM_000187) transcript (A549 cells [2]; [4]): −2.37
- Fold change, IL6R (NM_000565) transcript (A549 cells [2]; [4]): n.s.
- Fold change, KHSRP (NM_003685) transcript (A549 cells [2]; [4]): n.s.
- Fold change, LOC389727 (NM_372092) transcript (A549 cells [2]; [4]): 2.09
- Fold change, MAT2A (NM_005911) transcript (A549 cells [2]; [4]): −4.30
- Fold change, MOL1 (NM_021960) transcript (A549 cells [2]; [4]): 1.37
- Fold change, MPP6 (NM_016447) transcript (A549 cells [2]; [4]): −3.80
- Fold change, OSTCL (NM_145303) transcript (A549 cells [2]; [4]): n.s.
- Fold change, P5MC5 (NM_002805) transcript (A549 cells [2]; [4]): n.s.
- Fold change, PLK1S1 (NM_018474) transcript (A549 cells [2]; [4]): n.s.
- Fold change, PPM1J (NM_005167) transcript (A549 cells [2]; [4]): n.s.
- Fold change, RNF26 (NM_032015) transcript (A549 cells [2]; [4]): −1.77
- Fold change, RRAD (NM_004185) transcript (A549 cells [2]; [4]): 3.33
- Fold change, SEMA3G (NM_000379) transcript (A549 cells [2]; [4]): n.s.
- Fold change, SLC22A16AS (NM_007105) transcript (A549 cells [2]; [4]): −1.43
- Fold change, SOCS6 (NM_004232) transcript (A549 cells [2]; [4]): n.s.
- Fold change, TMED1 (NM_006858) transcript (A549 cells [2]; [4]): n.s.
- Fold change, TRIP4 (NM_016213) transcript (A549 cells [2]; [4]): n.s.
- Fold change, UBE2L3 (NM_003347) transcript (A549 cells [2]; [4]): n.s.
- Fold change, UBE21 (NM_014176) transcript (A549 cells [2]; [4]): −2.06
- Fold change, W282 (NM_018029) transcript (A549 cells [2]; [4]): 1.32
- Fold change, ADAR (NM_001111) transcript (A549 cells [2]; [5]): −1.33
- Fold change, ALDH7AT (NM_001182) transcript (A549 cells [2]; [5]): −1.82
- Fold change, CD151 (NM_004357) transcript (A549 cells [2]; [5]): n.s.
- Fold change, CLIC1 (NM_001288) transcript (A549 cells [2]; [5]): −1.29
- Fold change, COMMO9 (NM_014186) transcript (A549 cells [2]; [5]): 1.87
- Fold change, COX5B (NM_001802) transcript (A549 cells [2]; [5]): n.s.
- Fold change, COX7C (NM_001867) transcript (A549 cells [2]; [5]): n.s.
- Fold change, DHRSX (NM_145177) transcript (A549 cells [2]; [5]): 1.38
- Fold change, EBP (NM_006579) transcript (A549 cells [2]; [5]): n.s.
- Fold change, EEF2 (NM_001901) transcript (A549 cells [2]; [5]): n.s.
- Fold change, FDXK (NM_003681) transcript (A549 cells [2]; [5]): n.s.
- Fold change, FN3KRP (NM_024619) transcript (A549 cells [2]; [5]): −2.05
- Fold change, HDLBP (NM_005336) transcript (A549 cells [2]; [5]): n.s.
- Fold change, HGD (NM_000187) transcript (A549 cells [2]; [5]): −2.34
- Fold change, IL6R (NM_000565) transcript (A549 cells [2]; [5]): n.s.
- Fold change, KHSRP (NM_003685) transcript (A549 cells [2]; [5]): n.s.
- Fold change, LOC389727 (NM_372092) transcript (A549 cells [2]; [5]): n.s.
- Fold change, MAT2A (NM_005911) transcript (A549 cells [2]; [5]): −3.05
- Fold change, MOL1 (NM_021960) transcript (A549 cells [2]; [5]): 1.07
- Fold change, MPP6 (NM_016447) transcript (A549 cells [2]; [5]): n.s.
- Fold change, OSTCL (NM_145303) transcript (A549 cells [2]; [5]): n.s.
- Fold change, P5MC5 (NM_002805) transcript (A549 cells [2]; [5]): n.s.
- Fold change, PLK1S1 (NM_018474) transcript (A549 cells [2]; [5]): n.s.
- Fold change, PPM1J (NM_005167) transcript (A549 cells [2]; [5]): n.s.
- Fold change, RNF26 (NM_032015) transcript (A549 cells [2]; [5]): −1.51
- Fold change, RRAD (NM_004185) transcript (A549 cells [2]; [5]): 2.04
- Fold change, SEMA3G (NM_000379) transcript (A549 cells [2]; [5]): n.s.
- Fold change, SLC22A16AS (NM_007105) transcript (A549 cells [2]; [5]): −1.53
- Fold change, SOCS6 (NM_004232) transcript (A549 cells [2]; [5]): n.s.
- Fold change, TMED1 (NM_006858) transcript (A549 cells [2]; [5]): n.s.
- Fold change, TRIP4 (NM_016213) transcript (A549 cells [2]; [5]): n.s.
- Fold change, UBE2L3 (NM_003347) transcript (A549 cells [2]; [5]): n.s.
- Fold change, UBE21 (NM_014176) transcript (A549 cells [2]; [5]): −1.50
- Fold change, W282 (NM_018029) transcript (A549 cells [2]; [5]): n.s.
- direct mitochondrion-permeabilizing effects [3]: can mediate direct mitochondrion-permeabilizing effects
